Experimental data from PubChem BioAssay AID743377 (Vanderbilt Specialized Chemistry Center, 2014).
Calls of active or inactive are those of the source. How the calls were made is not given here.

Biological target: D(2) dopamine receptor (Homo sapiens) (UniProt P14416)
Assay: human DRD2 long isoform antagonists – cell-based, D2L isoform, counter-screen for D4 antagonist project, confirmation (AID 743377)
Conditions: D2L-expressing cells, antagonist counterscreen, functional read-out

Sequence of D(2) dopamine receptor (Homo sapiens) (P14416 whole entry, looked up, canonical isoform): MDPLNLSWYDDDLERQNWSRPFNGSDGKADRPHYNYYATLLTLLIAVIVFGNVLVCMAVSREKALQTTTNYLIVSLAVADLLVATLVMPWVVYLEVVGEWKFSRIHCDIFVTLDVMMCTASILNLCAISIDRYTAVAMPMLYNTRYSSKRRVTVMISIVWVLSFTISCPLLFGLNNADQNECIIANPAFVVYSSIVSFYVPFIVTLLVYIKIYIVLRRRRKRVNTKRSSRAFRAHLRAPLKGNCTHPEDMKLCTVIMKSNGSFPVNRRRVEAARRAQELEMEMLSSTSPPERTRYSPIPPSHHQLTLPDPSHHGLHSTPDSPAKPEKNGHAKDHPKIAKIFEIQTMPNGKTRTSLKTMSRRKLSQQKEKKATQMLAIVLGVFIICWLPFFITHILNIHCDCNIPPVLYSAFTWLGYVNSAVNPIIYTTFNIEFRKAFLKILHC

With `Clc1ccc(CN2CCO[C@H](CCc3ccccc3)C2)cc1` the IC50 was > 20 µM (inactive).
